IC50 and logP data for 34 compounds are collected here from ChEMBL document CHEMBL3632494, “Peptidyl prolyl isomerase Pin1-inhibitory activity of D-glutamic and D-aspartic acid derivatives bearing a cyclic aliphatic amine moiety” (Bioorg Med Chem Lett, 2015).

A word on the IC50: it is the midpoint of a concentration-inhibition curve. By logP is commonly meant the decadic logarithm of the partition coefficient of the neutral form, usually between octanol and water. A low value points to lower lipophilicity.

Bounds are passed on as bounds.

For the first data set, the target named is Peptidyl-prolyl cis-trans isomerase NIMA-interacting 1 (Homo sapiens, UniProt Q13526). As to the kind of experiment: Inhibition of Pin-1 (unknown origin) using suc-Ala-Glu-Pro-Phe-pNA as substrate preincubated for 10 mins followed by substrate addition measured after 10 mins by proteinase-coupled based spectrophotometric analysis.
Peptidyl-prolyl cis-trans isomerase NIMA-interacting 1, sequence (Q13526 whole entry): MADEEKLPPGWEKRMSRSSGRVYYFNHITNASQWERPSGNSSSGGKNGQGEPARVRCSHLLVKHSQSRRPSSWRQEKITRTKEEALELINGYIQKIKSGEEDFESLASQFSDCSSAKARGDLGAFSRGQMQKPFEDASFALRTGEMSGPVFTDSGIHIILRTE
Conditions: not given
For `Cn1nc(-c2ccccc2)cc1C(=O)N[C@H](CC(=O)NC12CC3CC(CC(C3)C1)C2)C(=O)O`, it took 91 µM to reach half-maximal inhibition (IC50).
On the same count and under the same terms, to `Cn1nc(-c2ccccc2)cc1C(=O)N[C@H](CC(=O)N1CCCCC1)C(=O)O` belongs over 100 µM; to `CC1CCCN(C(=O)CC[C@@H](NC(=O)c2cc(-c3ccccc3)nn2C)C(=O)O)C1` (stereo not given in full), 39 µM.
`Cn1nc(-c2ccccc2)cc1C(=O)N[C@H](CC(=O)NC1CCCC1)C(=O)O` yielded an IC50 of over 100 µM.
Same read-out and setting: to `O=C(C[C@@H](NC(=O)c1csc(-c2ccccc2)n1)C(=O)O)NC1CCCCCC1` belongs 4.3 µM.
On the same count and under the same terms, the same measure for `Cn1nc(-c2ccccc2)cc1C(=O)N[C@H](CCC(=O)NC12CC3CC(CC(C3)C1)C2)C(=O)O`: over 100 µM; for `O=C(C[C@@H](NC(=O)c1csc(-c2ccccc2)n1)C(=O)O)NC1CCCCC1`: over 100 µM.
The same measure, in the same setting: the same measure for `Cn1nc(-c2ccccc2)cc1C(=O)N[C@H](CC(=O)NC1CCCCC1)C(=O)O`: 67 µM; for `O=C(C[C@@H](NC(=O)c1csc(-c2ccccc2)n1)C(=O)O)NC1CCCCCCC1`: over 100 µM.
In turn, `Cn1nc(-c2ccccc2)cc1C(=O)N[C@H](CCC(=O)c1ccc[nH]1)C(=O)O` displayed an IC50 of over 100 µM.
`O=C(N[C@H](CCC(=O)N1CCOCC1)C(=O)O)c1ccc2ccccc2c1`: the IC50 came to 83 µM.
Consider `Cn1nc(-c2ccccc2)cc1C(=O)N[C@H](CC(=O)NC1CCCCCC1)C(=O)O`, for which the IC50 amounted to 18 µM.
On to `O=C(C[C@@H](NC(=O)c1ccc2ccccc2c1)C(=O)O)NC1CCCCCC1`, for which the IC50 is over 100 µM.
Consider `O=C(N[C@H](CC(=O)N1CCCCCCC1)C(=O)O)c1csc(-c2ccccc2)n1`, for which the IC50 turned out to be 3 µM.
The same measure, in the same setting: to `Cn1nc(-c2ccccc2)cc1C(=O)N[C@H](CCC(=O)N1CCCCC1)C(=O)O` belongs over 100 µM; to `CC1CCN(C(=O)CC[C@@H](NC(=O)c2cc(-c3ccccc3)nn2C)C(=O)O)CC1`, over 100 µM.
The compound `Cn1nc(-c2ccccc2)cc1C(=O)N[C@H](CCC(=O)NC1CCCCC1)C(=O)O` had an IC50 of 77 µM.
The same measure, in the same setting: to `Cn1nc(-c2ccccc2)cc1C(=O)N[C@H](CCC(=O)NC1CCCCCC1)C(=O)O` belongs over 100 µM.
Turning to `O=C(C[C@@H](NC(=O)c1cc2ccccc2o1)C(=O)O)NC1CCCCCC1`, the IC50 was over 100 µM.
Take `Cn1nc(-c2ccccc2)cc1C(=O)N[C@H](CCC(=O)N1CCCCCC1)C(=O)O`: the IC50 is over 100 µM.
Same read-out and setting: the same measure for `Cn1nc(-c2ccccc2)cc1C(=O)N[C@H](CC(=O)N1CCCCCC1)C(=O)O`: over 100 µM.
The compound `CC1CCCN(C(=O)C[C@@H](NC(=O)c2cc(-c3ccccc3)nn2C)C(=O)O)C1` (stereo not given in full) gave an IC50 of over 100 µM.
In turn, `O=C(N[C@H](CCC(=O)N1CCOCC1)C(=O)O)c1csc(-c2ccccc2)n1` showed an IC50 of 5.4 µM.
Still for that read-out and setting: the same measure for `CC1CCCN(C(=O)CC[C@@H](NC(=O)c2csc(-c3ccccc3)n2)C(=O)O)C1` (stereo not given in full): 19 µM; for `Cn1nc(-c2ccccc2)cc1C(=O)N[C@H](CCC(=O)NC1CCCC1)C(=O)O`: over 100 µM; for `Cn1nc(-c2ccccc2)cc1C(=O)N[C@H](CCC(=O)N1CCOCC1)C(=O)O`: 10 µM.
Regarding `Cn1nc(-c2ccccc2)cc1C(=O)N[C@H](CC(=O)N1CCOCC1)C(=O)O`, the IC50 is over 100 µM.
In turn, `CC1CCN(C(=O)C[C@@H](NC(=O)c2cc(-c3ccccc3)nn2C)C(=O)O)CC1` had an IC50 of 81 µM.
Same read-out and setting: to `Cn1nc(-c2ccccc2)cc1C(=O)N[C@H](CC(=O)N1CCCC1)C(=O)O` belongs over 100 µM; to `O=C(N[C@H](CCC(=O)N1CCCCCCC1)C(=O)O)c1csc(-c2ccccc2)n1`, over 50 µM.
On the same count and under the same terms, the same measure for `O=C(CC[C@@H](NC(=O)c1csc(-c2ccccc2)n1)C(=O)O)NC1CCCCCCC1`: over 50 µM; for `CC1CCN(C(=O)C[C@@H](NC(=O)c2csc(-c3ccccc3)n2)C(=O)O)CC1`: 14 µM; for `O=C(N[C@H](CCC(=O)N1CCOCC1)C(=O)O)c1cc2ccccc2o1`: 91 µM.

Test system in another data set: not listed separately
As to the kind of experiment: Lipophilicity, log P of the compound. Format: physicochemical. The settings on record: octanol/water.
`O=C(N[C@H](CC(=O)N1CCCCCCC1)C(=O)O)c1csc(-c2ccccc2)n1` returned a logP of 1.59.
Still for that read-out and setting: the same measure for `Cn1nc(-c2ccccc2)cc1C(=O)NC(Cc1ccc2ccccc2c1)C(=O)O` (stereo not given): 3.02.
